Reference: ChEMBL document CHEMBL3797190, “Development of 3,5-Dinitrobenzylsulfanyl-1,3,4-oxadiazoles and Thiadiazoles as Selective Antitubercular Agents Active Against Replicating and Nonreplicating Mycobacterium tuberculosis” (J Med Chem, 2016)
In brackets after ≈: the same amount, converted by molar mass. Activity calls are given as the source filed them. The calls are words filed in the database; no cut-off is given here.

Key:
[1] = system: Mycobacterium tuberculosis; experiment: Inhibition of RNA biosynthesis in Mycobacterium tuberculosis H37Ra assessed as reduction of [14C]-uracil incorporation at 5 ug/ml preincubated for 1 hr followed by radiolabeling with [14C]-uracil for 24 hrs by scintillation spectrometry; type: functional, organism-based
[2] = system: Mycobacterium tuberculosis; experiment: Antimycobacterial activity against Mycobacterium tuberculosis H37Ra assessed as growth inhibition at 5 ug/ml preincubated for 1 hr followed by radiolabeling with [14C]-uracil, [14C]-methionine for 24 hrs; type: functional, organism-based
[3] = system: Mycobacterium tuberculosis; experiment: Inhibition of proteosynthesis in Mycobacterium tuberculosis H37Ra assessed as reduction of [14C]-methionine incorporation at 5 ug/ml preincubated for 1 hr followed by radiolabeling with [14C]-methionine for 24 hrs by scintillation spectrometry; type: functional, organism-based
[4] = Cytotoxicity against human HeLa cells assessed as cell viability at 20 uM after 48 hrs by MTS assay; type: cell-based; settings: read-out: Activity
Aspergillus fumigatus = experiment: Antifungal activity against Aspergillus fumigatus 231 after 24 to 48 hrs by broth microdilution method; type: functional
Trichosporon asahii = experiment: Antifungal activity against Trichosporon asahii 1188 after 24 to 48 hrs by broth microdilution method; type: functional
Klebsiella pneumoniae [5] = experiment: Antibacterial activity against ESBL producing Klebsiella pneumoniae J 14368/08 after 24 to 48 hrs by broth microdilution method; type: functional
Pseudomonas aeruginosa = experiment: Antibacterial activity against Pseudomonas aeruginosa ATCC 9027 after 24 to 48 hrs by broth microdilution method; type: functional
[6] = Cytotoxicity against MDCK2-MDR1 cells assessed as cell viability at 20 uM after 48 hrs by MTS assay; type: ADME, cell-based, Canis lupus familiaris, MDCK-II; settings: dog, read-out: Activity
HeLa = experiment: Cytotoxicity against human HeLa cells assessed as cell viability after 24 hrs by MTS assay; type: cell-based
[7] = Cytotoxicity against MDCK2-MDR1 cells assessed as cell viability at 20 uM after 24 hrs by MTS assay; type: ADME, cell-based, Canis lupus familiaris, MDCK-II; settings: dog, read-out: Activity
Staphylococcus aureus [8] = experiment: Antibacterial activity against methicillin-resistant Staphylococcus aureus H 5996/08 after 24 to 48 hrs by broth microdilution method; type: functional
Mycobacterium kansasii [9] = experiment: Antimycobacterial activity against Mycobacterium kansasii CNCTC My 6509/96 after 21 days by microdilution method; type: functional; settings: CNCTC My 6509/96, 504 h
[10] = Cytotoxicity against human HuH7 cells assessed as cell viability at 20 uM after 48 hrs by MTS assay; type: cell-based, Huh-7; settings: read-out: Activity
[11] = Cytotoxicity against human HuH7 cells assessed as cell viability after 24 hrs by MTS assay; type: cell-based; settings: Huh-7, 24 h
[12] = Cytotoxicity against human HeLa cells assessed as cell viability at 20 uM after 24 hrs by MTS assay; type: cell-based; settings: read-out: Activity
Staphylococcus aureus [13] = experiment: Antibacterial activity against Staphylococcus aureus ATCC 6538 after 24 to 48 hrs by broth microdilution method; type: functional
Nakaseomyces glabratus = experiment: Antifungal activity against Candida glabrata 20/I after 24 to 48 hrs by broth microdilution method; type: functional
[14] = system: Trichophyton mentagrophytes; experiment: Antifungal activity against Trichophyton mentagrophytes 445 after 72 to 120 hrs by broth microdilution method; type: functional
[15] = system: Staphylococcus epidermidis; experiment: Antibacterial activity against Staphylococcus epidermidis H 6966/08 after 24 to 48 hrs by broth microdilution method; type: functional
[16] = Cytotoxicity against human HuH7 cells assessed as cell viability after 48 hrs by MTS assay; type: cell-based; settings: Huh-7, 48 h
[17] = Cytotoxicity against human HuH7 cells assessed as cell viability at 20 uM after 24 hrs by MTS assay; type: cell-based, Huh-7; settings: read-out: Activity
Enterococcus faecalis = experiment: Antibacterial activity against Enterococcus faecalis J 14365/08 after 24 to 48 hrs by broth microdilution method; type: functional
Klebsiella pneumoniae [18] = experiment: Antibacterial activity against Klebsiella pneumoniae D 11750/08 after 24 to 48 hrs by broth microdilution method; type: functional
Candida albicans = experiment: Antifungal activity against Candida albicans ATCC 44859 after 24 to 48 hrs by broth microdilution method; type: functional
[19] = Cytotoxicity against MDCK2-MDR1 cells assessed as cell viability after 24 hrs by MTS assay; type: ADME, cell-based; settings: Canis lupus familiaris, MDCK-II
Salmonella typhimurium [20] = experiment: Mutagenic activity in Salmonella typhimurium TA100 assessed as reverse mutation at 30 uM by Ames test; type: toxicity, organism-based; settings: salmonella enterica subsp. enterica serovar typhimurium
Pichia kudriavzevii = experiment: Antifungal activity against Candida krusei E28 after 24 to 48 hrs by broth microdilution method; type: functional
Salmonella typhimurium [21] = experiment: Mutagenic activity in Salmonella typhimurium TA98 assessed as reverse mutation at 30 uM by Ames test; type: toxicity, organism-based; settings: salmonella enterica subsp. enterica serovar typhimurium
Candida tropicalis = experiment: Antifungal activity against Candida tropicalis 156 after 24 to 48 hrs by broth microdilution method; type: functional
Escherichia coli = experiment: Antibacterial activity against Escherichia coli ATCC 8739 after 24 to 48 hrs by broth microdilution method; type: functional
Lichtheimia corymbifera = experiment: Antifungal activity against Absidia corymbifera 272 after 24 to 48 hrs by broth microdilution method; type: functional
[22] = system: Mycobacterium tuberculosis; experiment: Antimycobacterial activity against Mycobacterium tuberculosis H37Rv after 7 days by HTS assay; type: functional; settings: 168 h
Mycobacterium kansasii [23] = experiment: Antimycobacterial activity against Mycobacterium kansasii CNCTC My 235/80 after 14 days by microdilution method; type: functional; settings: CNCTC My 235/80, 336 h
[24] = Cytotoxicity against primary human hepatocytes assessed as cell viability at 20 uM after 48 hrs by MTS assay; type: cell-based, Hepatocyte; settings: read-out: Activity
[25] = system: Mycobacterium tuberculosis; experiment: Antimycobacterial activity against Mycobacterium tuberculosis CNCTC My 331/88 after 21 days by microdilution method; type: functional; settings: CNCTC My 331/88, 504 h
[26] = system: Mycobacterium tuberculosis; experiment: Antimycobacterial activity against Mycobacterium tuberculosis CNCTC My 331/88 after 14 days by microdilution method; type: functional; settings: CNCTC My 331/88, 336 h
Mycobacterium kansasii [27] = experiment: Antimycobacterial activity against Mycobacterium kansasii CNCTC My 6509/96 after 14 days by microdilution method; type: functional; settings: CNCTC My 6509/96, 336 h
Hepatocyte = experiment: Cytotoxicity against primary human hepatocytes assessed as cell viability after 48 hrs by MTS assay; type: cell-based
Mycobacterium avium [28] = experiment: Antimycobacterial activity against Mycobacterium avium CNCTC My 330/88 after 21 days by microdilution method; type: functional; settings: CNCTC My 330/88, 504 h
Mycobacterium kansasii [29] = experiment: Antimycobacterial activity against Mycobacterium kansasii CNCTC My 235/80 after 7 days by microdilution method; type: functional; settings: CNCTC My 235/80, 168 h
Mycobacterium avium [30] = experiment: Antimycobacterial activity against Mycobacterium avium CNCTC My 330/88 after 14 days by microdilution method; type: functional; settings: CNCTC My 330/88, 336 h
Mycobacterium kansasii [31] = experiment: Antimycobacterial activity against Mycobacterium kansasii CNCTC My 6509/96 after 7 days by microdilution method; type: functional; settings: CNCTC My 6509/96, 168 h
Mycobacterium kansasii [32] = experiment: Antimycobacterial activity against Mycobacterium kansasii CNCTC My 235/80 after 21 days by microdilution method; type: functional; settings: CNCTC My 235/80, 504 h

| SMILES | viability at 48 h, 20 µM [4] | MIC50 (Aspergillus fumigatus) | MIC80 (Trichosporon asahii) | MIC95 (Klebsiella pneumoniae [5]) | MIC95 (Pseudomonas aeruginosa) | viability at 48 h, 20 µM [6] | IC50 (HeLa) | viability at 24 h, 20 µM [7] | MIC95 (Staphylococcus aureus [8]) | MIC99 (Mycobacterium kansasii [9]) | viability at 48 h, 20 µM [10] | IC50 [11] | viability at 24 h, 20 µM [12] | MIC95 (Staphylococcus aureus [13]) | MIC80 (Nakaseomyces glabratus) | MIC50 [14] | MIC95 [15] | viability at 24 h, 20 µM [17] | MIC95 (Enterococcus faecalis) | MIC95 (Klebsiella pneumoniae [18]) | further results |
| --- | --- | --- | --- | --- | --- | --- | --- | --- | --- | --- | --- | --- | --- | --- | --- | --- | --- | --- | --- | --- | --- |
| NC[C@H]1O[C@H](O[C@H]2[C@H](O)[C@@H](O[C@H]3O[C@H](CO)[C@@H](O)[C@H](N)[C@H]3O)[C@H](N)C[C@@H]2N)[C@H](O)[C@@H](O)[C@@H]1O | – | – | – | – | – | – | – | – | – | – | – | – | – | – | – | – | – | – | – | – | inhibition [1]: inactive; growth inhibition (GI) [2]: Active; inhibition [3]: Active |
| O=[N+]([O-])c1cc(CSc2nnc(-c3ccccc3)o2)cc([N+](=O)[O-])c1 | 33.2% | > 125 µM | > 125 µM | > 125 µM | > 125 µM | 42.4% | > 20 µM | 72.6% | > 125 µM | 2 µM (≈ 0.717 µg/mL) | 73.8% | > 20 µM | 88.3% | > 125 µM | > 125 µM | > 125 µM | > 125 µM | 99.3% | > 125 µM | > 125 µM | IC50 [16]: > 20 µM; MIC80 (Candida albicans): > 125 µM; IC50 [19]: > 20 µM; Activity (Salmonella typhimurium [20]): Non-toxic; MIC80 (Pichia kudriavzevii): > 125 µM; Activity (Salmonella typhimurium [21]): Toxic; MIC80 (Candida tropicalis): > 125 µM; MIC95 (Escherichia coli): > 125 µM; MIC50 (Lichtheimia corymbifera): > 125 µM |
| COc1ccc(-c2nnc(SCC(=O)NCCc3ccccc3)o2)cc1 | – | – | – | – | – | – | – | – | – | – | – | – | – | – | – | – | – | – | – | – | IC90 [22]: 0.38 µM |
| O=[N+]([O-])c1cc(CSc2nnc(-c3ccc(Cl)cc3Cl)o2)cc([N+](=O)[O-])c1 | 39.9% | > 125 µM | > 125 µM | > 125 µM | > 125 µM | 27.9% | > 20 µM | 106% | > 125 µM | 0.5 µM (≈ 0.214 µg/mL) | 37.7% | > 20 µM | 76.4% | > 125 µM | > 125 µM | > 125 µM | > 125 µM | 95.7% | > 125 µM | > 125 µM | MIC99 (Mycobacterium kansasii [23]): 0.5 µM (≈ 0.214 µg/mL); viability at 48 h, 20 µM [24]: 81.1%; MIC99 [25]: 0.06 µM (≈ 0.0256 µg/mL); MIC99 [26]: ≤ 0.03 µM; MIC99 (Mycobacterium kansasii [27]): 0.25 µM (≈ 0.107 µg/mL); IC50 (Hepatocyte): > 20 µM; MIC99 (Mycobacterium avium [28]): 32 µM (≈ 13.7 µg/mL); MIC99 (Mycobacterium kansasii [29]): 0.125 µM (≈ 0.0534 µg/mL); MIC99 (Mycobacterium avium [30]): 16 µM (≈ 6.84 µg/mL); MIC99 (Mycobacterium kansasii [31]): 0.125 µM (≈ 0.0534 µg/mL); MIC80 (Candida albicans): > 125 µM; IC50 [19]: > 20 µM; MIC80 (Pichia kudriavzevii): > 125 µM; MIC99 (Mycobacterium kansasii [32]): 0.5 µM (≈ 0.214 µg/mL); MIC80 (Candida tropicalis): > 125 µM; MIC95 (Escherichia coli): > 125 µM; MIC50 (Lichtheimia corymbifera): > 125 µM |
